{"source": "patent US10577322B2", "about": "“5-methoxytryptophan and its derivatives and uses thereof” (National Health Research Institutes, priority 2015, dated 2020)", "key": {"[1]": {"tested_on": "LPS-induced cytokine production", "format": "cell-based, mouse", "experimental": "Mouse RAW264.7 macrophages were from the American Type Culture Collection and cultured in DMEM containing 10% FBS. Cells were typically pre-incubated with or without 5-MTP (Sigma-Aldrich) for 30 min before LPS treatment, unless specified otherwise. The duration of LPS (100 ng/ml) treatment varied depending on the experiment.\nCytokine levels in the culture supernatants and serum were determined in microtiter plates (96-well) by a specific sandwich ELISA (Biosource) as previously described (Wu, J. Y. & Kuo, C. C. Pivotal role of ADP-ribosylation factor 6 in Toll-like receptor 9-mediated immune signaling. J Biol Chem 287, 4323-4334 (2012)) (Lee, G. L., et al. TLR 2 induces vascular smooth muscle cell migration through cAMP response element-binding protein-mediated interleukin-6 production. Arterioscler Thromb Vasc Biol 32, 2751-2760 (2012); hereinafter, Lee, G. L., et al.)."}, "lung tissues": {"tested_on": "lung tissues", "assay": "Lung histology (H&E) in LPS-treated mice", "format": "in vivo", "details": "LPS 60 mg/kg", "experimental": "For histological studies, the lungs were perfused with saline, and immersed in formalin for 24 h. Tissue blocks were placed in formalin, dehydrated in a graded series of ethanol, embedded in paraffin, cut into 3 μm-thick serial sections, and stained with haematoxylin and eosin for detecting inflammatory cells, alveolar congestion and alveolar septal wall thickness and interstitial edema.\nIn addition, paraffin-embedded sections were prepared from lungs of mice injected with 60 mg/kg LPS with or without saline or 5-MTP for the indicated time. Lung tissues were stained with hematoxylin and eosin and examined under light microscopy. The results are shown in FIG. 5C, in which scale bars represent 100 μm."}, "COX-2": {"tested_on": "COX-2", "assay": "LPS-induced COX-2 protein expression in RAW264.7 cells (immunoblot)", "format": "cell-based, mouse", "details": "LPS 8 h", "experimental": "Mouse RAW264.7 macrophages were from the American Type Culture Collection and cultured in DMEM containing 10% FBS. […] The duration of LPS (100 ng/ml) treatment varied depending on the experiment.\nCellular protein were resolved by 5% to 20% SDS-PAGE and transferred to nitrocellulose membranes and blotted with specific antibodies as previously described (Lee, G. L., et al.).\nAfter pretreating mouse macrophage RAW264.7 cells with different concentrations of 5-MTP for 30 min, cells were stimulated with LPS for 8 h. Cell lysates were immunoblotted with antibodies for COX-2 or β-actin. In addition, RAW264.7 cells were transfected with COX-2 promoter-luciferase plasmid. After 24 h transfection, the cells were incubated with LPS for 8 h. Luciferase activity was measured."}, "caspase-3": {"tested_on": "caspase-3", "assay": "Cleaved caspase-3 immunohistochemistry in lung tissues", "format": "in vivo, mice", "details": "LPS 60 mg/kg, 12 and 16 h", "experimental": "Prior to immunohistochemical detection of COX-2, iNOS, Ly6g, or cleaved caspase-3 in lung sections, sections were deparaffinized with xylene, progressively rehydrated through graded alcohols. Antigen sites were retrieved by heating the sections on slides in pH 8 EDTA antigen. retrieval (Trilogy; Cell Marque Corporation) in electric pressure cooker for 15 min. […] All antibodies described hereafter were diluted in blocking buffer. Sections were incubated at room temperature for 2 h with primary antibody and then washed in PBST. The sections were incubated with primary antibody amplifier quanta (Thermo) for 10 minutes. After rinsing with PBST, the sections were incubated with HRP Polymer Quanto (Thermo) for 10 minutes and washed three times with PBST. COX-2, iNOS, Ly6g and cleaved caspase-3 were visualized by the addition of DAB Quanto Chromogen: Substrate for 3 minutes. Tissues were also counterstained with hematoxylin.\nParaffin-embedded sections were prepared from lung tissues of mice treated with saline or LPS (60 mg/kg) with or without various concentrations of 5-MTP for 12 or 16 h. Activated caspase-3 level in lung tissues was determined by immunohistochemical staining of cleaved caspase-3. The results are shown in FIG. 9A, in which scale bars represent 200 μm."}, "NF-κB p65": {"tested_on": "NF-κB p65", "assay": "Phospho-p65 in peritoneal macrophage lysates (ELISA kit)", "format": "cell-based, mouse", "details": "peritoneal macrophages, 5-MTP 50 μM", "experimental": "Furthermore, after pretreating RAW264.7 cells with different concentrations of 5-MTP for 30 min, cells were stimulated with. LPS for 4 h. NF-κB p65, phospho-NF-κB p65 (p-p65) (Ser536) or β-actin was determined by immunoblotting with specific antibodies. Also, peritoneal macrophages were treated with LPS with or without 5-MTP (50 μM) for the indicated time. Phospho-p65 in the lysates was analyzed by an ELISA kit. The results are shown in FIG. 10D, in which the error bars denote mean ±SD (n=3). According to FIGS. 10C-10D, 5-MTP decreased LPS-induced phosphorylation of NF-κB p65 not only in RAW264.7 cells (FIG. 10C) but also in peritoneal macrophages (FIG. 10D)."}, "vascular calcification": {"tested_on": "vascular calcification", "assay": "High fat diet-induced arterial calcification in ApoE-deficient mice (von Kossa)", "format": "in vivo", "details": "23.4 mg/kg 3 times a week i.p., 20 weeks", "experimental": "ApoE-deficient mice were fed with on a Western high fat diet containing 1.25% cholesterol and 21% fat (Research Diets) starting at 6 weeks of age. The mice were simultaneously treated with vehicle (PBS) or 5-MTP (23.4 mg/kg body weight, 3 times a week) by intraperitoneal injection. After 20 weeks, the aortic trees were dissected and lesions examined in the aortic arch and its branches. Vascular calcifications in the aortic root were evaluated by von Kossa staining.\nVascular smooth muscle cell (VSMC) calcification is the major phenomenon to induce atherosclerotic vascular calcification in cardiovascular disease (CVD). We next investigated the effect of 5-MTP derivatives on VSMC calcification."}, "RAW264.7 cells": {"tested_on": "RAW264.7 cells", "assay": "Cell viability by MTT assay", "format": "cell-based, mouse", "details": "24 h", "experimental": "Furthermore, RAW264.7 cells were treated with different concentrations of 5-MTP or 5-MTPE for 24 h. Cell viability was determined by MTT assay. In another experiment, after pretreating RAW264.7 cells with different concentrations of 5-MTP or 5-MTPE for 30 min, cells were stimulated with LPS for 24 h. IL-6 level in culture supernatants was measured by ELISA."}}, "data": [{"smiles": "COc1ccc2[nH]cc(C[C@H](N)C(=O)O)c2c1", "note": "[5-MTP, 5-methoxytryptophan]", "values": [{"measurement": "Suppressive activity in LPS-induced cytokine production", "setting": "[1]", "value": "+"}, {"measurement": "LPS-induced lung pathological changes (leukocyte infiltration, septal wall thickening, edema, congestion)", "setting": "lung tissues", "value": "significantly alleviated"}, {"measurement": "LPS-induced COX-2 protein expression", "setting": "COX-2", "value": "blocked"}, {"measurement": "cleaved caspase-3 in lung tissues", "setting": "caspase-3", "value": "reduced by 5-MTP"}, {"measurement": "LPS-induced phosphorylation of NF-κB p65", "setting": "NF-κB p65", "value": "decreased"}, {"measurement": "high fat diet-induced vascular calcification", "setting": "vascular calcification", "value": "prevented"}]}, {"smiles": "COC(=O)C(N)Cc1c[nH]c2ccc(OC)cc12", "note": "(stereo not shown) [5-MTPE, ester-5-MTP]", "values": [{"measurement": "cell viability (MTT)", "setting": "RAW264.7 cells", "value": "not cell viability"}]}]}
